Assay results reported in ChEMBL document CHEMBL1687830, “Evaluation of ceftazidime and NXL104 in two murine models of infection due to KPC-producing Klebsiella pneumoniae” (2011).
Values after ≈ are worked out from the molar mass of the structure shown.

Columns and labels:
Type in all cases: functional
Klebsiella pneumoniae [1] = assay: Antimicrobial activity against carbapenemases KPC-producing Klebsiella pneumoniae VA-361 infected in sc dosed CD-1 mouse in presence of 4 ug/ml cavulanate beta-lactamase inhibitor
Klebsiella pneumoniae [2] = assay: Antimicrobial activity against carbapenemases KPC-producing Klebsiella pneumoniae VA-361 infected in sc dosed CD-1 mouse in presence of 4 ug/ml Tazobactam beta-lactamase inhibitor
Klebsiella pneumoniae [3] = assay: Antimicrobial activity against carbapenemases KPC-producing Klebsiella pneumoniae VA-406 infected in sc dosed CD-1 mouse in presence of 1 ug/ml NXL104 beta-lactamase inhibitor
Klebsiella pneumoniae [4] = assay: Antimicrobial activity against carbapenemases KPC-producing Klebsiella pneumoniae VA-406 infected in sc dosed CD-1 mouse in presence of 4 ug/ml NXL104 beta-lactamase inhibitor
Klebsiella pneumoniae [5] = assay: Antimicrobial activity against carbapenemases KPC-producing Klebsiella pneumoniae VA-361 infected in sc dosed CD-1 mouse
Klebsiella pneumoniae [6] = assay: Antimicrobial activity against carbapenemases KPC-producing Klebsiella pneumoniae VA-361 infected in sc dosed CD-1 mouse in presence of 1 ug/ml NXL104 beta-lactamase inhibitor
Klebsiella pneumoniae [7] = assay: Antimicrobial activity against carbapenemases KPC-producing Klebsiella pneumoniae VA-361 infected in sc dosed CD-1 mouse in presence of 4 ug/ml NXL104 beta-lactamase inhibitor
Klebsiella pneumoniae [8] = assay: Antimicrobial activity against carbapenemases KPC-producing Klebsiella pneumoniae VA-406 infected in sc dosed CD-1 mouse
Klebsiella pneumoniae [9] = assay: Antimicrobial activity against carbapenemases KPC-producing Klebsiella pneumoniae VA-406 infected in sc dosed CD-1 mouse in presence of 2 ug/ml NXL104 beta-lactamase inhibitor
Klebsiella pneumoniae [10] = assay: Antimicrobial activity against carbapenemases KPC-producing Klebsiella pneumoniae VA-406 infected in sc dosed CD-1 mouse in presence of 4 ug/ml cavulanate beta-lactamase inhibitor
Klebsiella pneumoniae [11] = assay: Antimicrobial activity against carbapenemases KPC-producing Klebsiella pneumoniae VA-406 infected in sc dosed CD-1 mouse in presence of 4 ug/ml Tazobactam beta-lactamase inhibitor
Klebsiella pneumoniae [12] = assay: Antimicrobial activity against carbapenemases KPC-producing Klebsiella pneumoniae VA-361 infected in sc dosed CD-1 mouse in presence of 2 ug/ml NXL104 beta-lactamase inhibitor
Klebsiella pneumoniae [13] = assay: (§1) Antimicrobial activity against carbapenemases KPC-producing Klebsiella pneumoniae VA-361 infected in CD-1 mouse thigh infection model assessed as change in log10 CFU reduction per thigh treated 1.5 hr post infection at 1024 mg/kg, sc after 24 hrs by acute lethal septicemia analysis (reference value: 8.93 log10CFU/thigh); conditions: route subcutaneous
Klebsiella pneumoniae [14] = assay: as §1, with “>=1024:256” for “1024”, “sc compound to NXL104 beta-lactamase inhibitor ratio” for “sc”
Klebsiella pneumoniae [15] = assay: as §1, with “2048” for “1024”; conditions: route subcutaneous
Klebsiella pneumoniae [16] = assay: as §1, with “VA-406” for “VA-361”, “8.67” for “8.93”; conditions: route subcutaneous
Klebsiella pneumoniae [17] = assay: as §1, with “VA-406” for “VA-361”, “>=8:2” for “1024”, “sc compound to NXL104 beta-lactamase inhibitor ratio” for “sc”, “8.67” for “8.93”
Klebsiella pneumoniae [18] = assay: as §1, with “VA-406” for “VA-361”, “2048” for “1024”, “8.67” for “8.93”; conditions: route subcutaneous

| Structure (SMILES) | MIC (Klebsiella pneumoniae [1]) [µg/mL] | MIC (Klebsiella pneumoniae [2]) [µg/mL] | MIC (Klebsiella pneumoniae [3]) [µg/mL] | MIC (Klebsiella pneumoniae [4]) [µg/mL] | MIC (Klebsiella pneumoniae [5]) [µg/mL] | MIC (Klebsiella pneumoniae [6]) [µg/mL] | MIC (Klebsiella pneumoniae [7]) [µg/mL] | MIC (Klebsiella pneumoniae [8]) [µg/mL] | MIC (Klebsiella pneumoniae [9]) [µg/mL] | MIC (Klebsiella pneumoniae [10]) [µg/mL] | MIC (Klebsiella pneumoniae [11]) [µg/mL] | MIC (Klebsiella pneumoniae [12]) [µg/mL] | log10cfu (Klebsiella pneumoniae [13]) | log10cfu (Klebsiella pneumoniae [14]) | log10cfu (Klebsiella pneumoniae [15]) | log10cfu (Klebsiella pneumoniae [16]) | log10cfu (Klebsiella pneumoniae [17]) | log10cfu (Klebsiella pneumoniae [18]) |
| --- | --- | --- | --- | --- | --- | --- | --- | --- | --- | --- | --- | --- | --- | --- | --- | --- | --- | --- |
| CO/N=C(\C(=O)N[C@@H]1C(=O)N2C(C(=O)O)=C(COC(C)=O)CS[C@H]12)c1csc(N)n1 [CEFOTAXIME] | 16 | 16 | 0.5 | 0.125 | 64 (≈ 141 µM) | 0.5 | 0.125 | ≥ 512 | 0.5 | 256 | 256 | 0.5 |  |  |  |  |  |  |
| CCN1CCN(C(=O)N[C@@H](C(=O)N[C@@H]2C(=O)N3[C@@H]2SC(C)(C)[C@@H]3C(=O)O)c2ccccc2)C(=O)C1=O [PIPERACILLIN] |  | ≥ 512 | 16 | 0.5 | ≥ 512 | 32 | ≤ 0.06 | ≥ 512 | 8 |  | ≥ 512 | 8 | -0.32 | -1.76 | -0.34 | 0.25 | 2.93 | 0.03 |
| C[C@@H](O)[C@H]1C(=O)N2C(C(=O)O)=C(SCCNC=N)C[C@H]12 [IMIPENEM ANHYDROUS] | 2 | 4 |  |  | 4 (≈ 13.4 µM) |  |  | 256 (≈ 855 µM) |  | 128 | 256 |  |  |  |  |  |  |  |
